Our source for the MIC values is ChEMBL document CHEMBL3098048, “TMEDA-derived biscationic amphiphiles: An economical preparation of potent antibacterial agents” (2014).

Holding throughout (type): functional
One assay relates to Pseudomonas aeruginosa. Nature of the assay: Antibacterial activity against wild-type Pseudomonas aeruginosa PAO1 assessed as growth inhibition after 72 hrs by broth microdilution method. To be noted: PAO1, 72 h.
A further assay has as its system Staphylococcus aureus. Briefly: Antibacterial activity against Staphylococcus aureus SH1000 assessed as growth inhibition after 72 hrs by broth microdilution method. Particulars: SH1000, 72 h. Background: Broth dilution looks for growth in wells or tubes with falling amounts of substance.
The test system of a further assay is Enterococcus faecalis. Nature of the assay: Antibacterial activity against Enterococcus faecalis OG1RF assessed as growth inhibition after 72 hrs by broth microdilution method.
The next assay concerns Escherichia coli. Nature of the assay: Antibacterial activity against Escherichia coli MC4100 assessed as growth inhibition after 72 hrs by broth microdilution method. Particulars: MC4100, 72 h.

For `CCCCCCCCCCCCCCCCCCCC[N+](C)(C)CCN(C)C`, the MIC (commonly the least concentration at which growth counts as inhibited) with Pseudomonas aeruginosa turned out to be 125 µM; with Staphylococcus aureus, 4 µM; in the assay with Enterococcus faecalis, 4 µM; in the assay with Escherichia coli, 63 µM.
As for `CCCCCCCCCC[N+](C)(C)CC[N+](C)(C)CCCCCCCCCC`, the minimum inhibitory concentration (MIC) was found to be 8 µM in the assay with Pseudomonas aeruginosa, 2 µM in the assay on Staphylococcus aureus, 8 µM with Enterococcus faecalis and 16 µM in the assay with Escherichia coli.
As for `CCCCCCCCCCCCCCCCCC[N+](C)(C)CC[N+](C)(C)CCCCCCCCCCCCCCCCCC`, the minimum inhibitory concentration (MIC) is 500 µM in the assay with Pseudomonas aeruginosa, 32 µM in the assay on Staphylococcus aureus, 63 µM in the assay with Enterococcus faecalis and 250 µM in the assay on Escherichia coli.
The matching figures for `CCCCCCCCCCCCCCCCCCCC[N+](C)(C)CC[N+](C)(C)CCCCCCCCCC`: 16 µM, 4 µM, 16 µM and 16 µM.
The matching figures for `CCCCCCCCCCCCCCCCCCCC[N+](C)(C)CC[N+](C)(C)CCCCCCCC`: 32 µM, 4 µM, 4 µM and 16 µM.
With `CCCCCCCCCCCCCC[N+](C)(C)CC[N+](C)(C)CCCCCCCCCCCCCC`, the minimal inhibitory concentration (MIC) with Pseudomonas aeruginosa came out at 32 µM; with Staphylococcus aureus, 4 µM; in the assay with Enterococcus faecalis, 2 µM; in the assay on Escherichia coli, 4 µM.
For `CCCCCCCCCCCCCCCCCC[N+](C)(C)CC[N+](C)(C)CCCCCCCCCC`, the MIC with Pseudomonas aeruginosa was determined as 32 µM; in the assay on Staphylococcus aureus it was 4 µM; in the assay with Enterococcus faecalis it was 2 µM; in the assay on Escherichia coli it was 16 µM.
As to `CCCCCCCC[N+](C)(C)CCN(C)C`, the MIC in the assay on Pseudomonas aeruginosa, in the assay with Staphylococcus aureus, in the assay with Enterococcus faecalis and in the assay with Escherichia coli was > 1000 µM in each case.
In the case of `CCCCCCCCCC[N+](C)(C)CCN(C)C`, the MIC with Pseudomonas aeruginosa was 250 µM; in the assay on Staphylococcus aureus, 63 µM; in the assay on Enterococcus faecalis, 250 µM; in the assay with Escherichia coli, 250 µM.
`CCCCCCCCCCCCCCCC[N+](C)(C)CCN(C)C`: the MIC stood at 16 µM in the assay on Pseudomonas aeruginosa, 1 µM with Staphylococcus aureus, 16 µM in the assay with Enterococcus faecalis and 16 µM with Escherichia coli.
As to `CCCCCCCCCCCCCCCCCC[N+](C)(C)CC[N+](C)(C)CCCCCCCCCCCCCCCC`, the MIC turned out to be 63 µM in the assay on Pseudomonas aeruginosa, 16 µM in the assay on Staphylococcus aureus, 32 µM in the assay with Enterococcus faecalis and 32 µM in the assay on Escherichia coli.
With `CCCCCCCCCCCCCC[N+](C)(C)CC[N+](C)(C)CCCCCCCCCC`, the MIC in the assay with Pseudomonas aeruginosa was found to be 4 µM; in the assay on Staphylococcus aureus, 4 µM; with Enterococcus faecalis, 1 µM; in the assay on Escherichia coli it was 2 µM.
For `CCCCCCCCCCCCCCCCCC[N+](C)(C)CC[N+](C)(C)CCCCCCCC`, the MIC in the assay on Pseudomonas aeruginosa turned out to be 32 µM; with Staphylococcus aureus it was 2 µM; in the assay with Enterococcus faecalis, 2 µM; in the assay on Escherichia coli, 8 µM.
Take `CCCCCCCCCCCC[N+](C)(C)CC[N+](C)(C)CCCCCCCC`: the minimal inhibitory concentration (MIC) with Pseudomonas aeruginosa came to 4 µM; in the assay on Staphylococcus aureus it was 1 µM; in the assay with Enterococcus faecalis, 4 µM; with Escherichia coli, 4 µM.
Consider `CCCCCCCCCCCC[N+](C)(C)CCN(C)C`, for which the minimal inhibitory concentration (MIC) in the assay with Pseudomonas aeruginosa was determined as 250 µM; in the assay with Staphylococcus aureus it was 32 µM; with Enterococcus faecalis it was 63 µM; in the assay with Escherichia coli it was 63 µM.
As for `CCCCCCCCCCCCCCCC[N+](C)(C)CC[N+](C)(C)CCCCCCCCCC`, the MIC with Pseudomonas aeruginosa was 32 µM; with Staphylococcus aureus, 4 µM; with Enterococcus faecalis, 4 µM; with Escherichia coli it was 8 µM.
As to `CCCCCCCCCCCCCC[N+](C)(C)CC[N+](C)(C)CCCCCCCCCCCC`, the MIC in the assay with Pseudomonas aeruginosa was determined as 8 µM; with Staphylococcus aureus it was 1 µM; in the assay with Enterococcus faecalis, 2 µM; with Escherichia coli, 2 µM.
Take `CCCCCCCCCCCCCCCC[N+](C)(C)CC[N+](C)(C)CCCCCCCCCCCCCCCC`: the minimum inhibitory concentration (MIC) with Pseudomonas aeruginosa was determined as 63 µM; in the assay on Staphylococcus aureus, 8 µM; in the assay on Enterococcus faecalis, 8 µM; in the assay with Escherichia coli it was 32 µM.
For `CCCCCCCCCCCCCCCCCCCC[N+](C)(C)CC[N+](C)(C)CCCCCCCCCCCCCCCC`, the MIC in the assay on Pseudomonas aeruginosa is 63 µM; in the assay with Staphylococcus aureus, 16 µM; in the assay with Enterococcus faecalis, 32 µM; in the assay on Escherichia coli, 63 µM.
As for `CCCCCCCC[N+](C)(C)CC[N+](C)(C)CCCCCCCC`, the minimal inhibitory concentration (MIC) in the assay with Pseudomonas aeruginosa is 500 µM; with Staphylococcus aureus, 32 µM; with Enterococcus faecalis it was 500 µM; in the assay with Escherichia coli, 250 µM.
As to `CCCCCCCCCC[N+](C)(C)CC[N+](C)(C)CCCCCCCC`, the MIC in the assay with Pseudomonas aeruginosa was 125 µM; in the assay on Staphylococcus aureus, 8 µM; in the assay on Enterococcus faecalis, 63 µM; with Escherichia coli, 63 µM.
`CCCCCCCCCCCCCCCCCC[N+](C)(C)CCN(C)C`: the minimal inhibitory concentration (MIC) was found to be 63 µM with Pseudomonas aeruginosa, 2 µM in the assay with Staphylococcus aureus, 4 µM with Enterococcus faecalis and 63 µM in the assay on Escherichia coli.
`CCCCCCCCCCCCCCCC[N+](C)(C)CC[N+](C)(C)CCCCCCCC`: the minimum inhibitory concentration (MIC) is 4 µM in the assay on Pseudomonas aeruginosa, 2 µM with Staphylococcus aureus, 2 µM with Enterococcus faecalis and 2 µM in the assay on Escherichia coli.
With `CCCCCCCCCCCCCC[N+](C)(C)CC[N+](C)(C)CCCCCCCC`, the MIC was 4 µM in the assay with Pseudomonas aeruginosa, 1 µM in the assay on Staphylococcus aureus, 2 µM in the assay on Enterococcus faecalis and 2 µM in the assay on Escherichia coli.
With `CCCCCCCCCCCCCCCC[N+](C)(C)CC[N+](C)(C)CCCCCCCCCCCCCC`, the MIC came out at 63 µM in the assay with Pseudomonas aeruginosa, 8 µM in the assay on Staphylococcus aureus, 2 µM in the assay with Enterococcus faecalis and 16 µM in the assay with Escherichia coli.
Take `CCCCCCCCCCCCCCCCCC[N+](C)(C)CC[N+](C)(C)CCCCCCCCCCCCCC`: the minimal inhibitory concentration (MIC) was determined as 63 µM with Pseudomonas aeruginosa, 8 µM in the assay with Staphylococcus aureus, 16 µM in the assay on Enterococcus faecalis and 16 µM in the assay on Escherichia coli.
Turning to `CCCCCCCCCCCCCC[N+](C)(C)CCN(C)C`, the MIC in the assay on Pseudomonas aeruginosa is 125 µM; in the assay on Staphylococcus aureus it was 2 µM; in the assay on Enterococcus faecalis it was 8 µM; in the assay on Escherichia coli, 16 µM.
The matching figures for `CCCCCCCCCCCCCCCCCCCC[N+](C)(C)CC[N+](C)(C)CCCCCCCCCCCCCC`: 63 µM, 8 µM, 16 µM and 16 µM.
In the same order, the values of `CCCCCCCCCCC[N+](C)(C)CC[N+](C)(C)CCCCCCCCCC` are 4 µM, 1 µM, 4 µM and 4 µM.
Regarding `CCCCCCCCCCCC[N+](C)(C)CC[N+](C)(C)CCCCCCCCCCCC`, the MIC in the assay on Pseudomonas aeruginosa is 4 µM; in the assay on Staphylococcus aureus, 1 µM; in the assay with Enterococcus faecalis, 1 µM; in the assay with Escherichia coli, 2 µM.
Consider `CCCCCCCCCCCCC[N+](C)(C)CC[N+](C)(C)CCCCCCCCCC`, for which the MIC was 2 µM with Pseudomonas aeruginosa, 1 µM in the assay with Staphylococcus aureus, 1 µM with Enterococcus faecalis and 2 µM in the assay with Escherichia coli.
As to `CCCCCCCCCCCC[N+](C)(C)CC[N+](C)(C)CCCCCCCCCC`, the MIC in the assay with Pseudomonas aeruginosa was found to be 2 µM; in the assay with Staphylococcus aureus, 1 µM; with Enterococcus faecalis, 2 µM; in the assay on Escherichia coli, 2 µM.
For `CCCCCCCCCCCCCCCC[N+](C)(C)CC[N+](C)(C)CCCCCCCCCCCC`, the MIC stood at 32 µM in the assay with Pseudomonas aeruginosa, 8 µM in the assay with Staphylococcus aureus, 4 µM with Enterococcus faecalis and 8 µM with Escherichia coli.
Take `CCCCCCCCCCCCCCCCCCCC[N+](C)(C)CC[N+](C)(C)CCCCCCCCCCCC`: the MIC in the assay with Pseudomonas aeruginosa was determined as 63 µM; in the assay with Staphylococcus aureus, 8 µM; in the assay on Enterococcus faecalis it was 4 µM; in the assay with Escherichia coli it was 32 µM.
In the same order, the values of `CCCCCCCCCCCCCCCCCC[N+](C)(C)CC[N+](C)(C)CCCCCCCCCCCC` are 32 µM, 4 µM, 4 µM and 16 µM.
